Key:
[1] = system: SOCE in myotubes from KI-STIM1I115F mice (STIM1 mutated protein); test: Pharmacological modulation of SOCE in myotubes from KI-STIM1 I115F mice; format: cell-based, mouse; settings: FIG. 4
Protocol: Wild-type and KI-STIM1^I115F primary myoblast were obtained from the following muscles: gastrocnemius, tibialis anterior, quadriceps femoris, extensor digitorum longus, soleus, biceps brachii and diaphragm. Each muscle was placed in a 60 mm dish in phosphate-buffered saline (PBS), removed from the tendon and separated longitudinally and subsequently chopped into smaller pieces. The small fragments were incubated with Pronase® (Protease, Streptomyces griseus, Calbiochem®, 25 KU) for 1 hour at 37° C. in shaking and neutralized with Dulbecco's Modified Eagle's Medium (DMEM, Sigma-Aldrich, Italy), supplemented with 10% heat-inactivated FCS (Gibco, Italy), L-glutamine 50 mg/mL (Sigma-Aldrich, Italy), penicillin 10 U/mL and streptomycin […] (Sigma-Aldrich, Italy), and 1% chicken embryo extract (Sigma-Aldrich, Italy). Tissues were then chopped into smaller pieces passing through pipets of 10 and 5 mL and the supernatant obtained was filtered in 40 μm strainer and centrifuge at RT for 10 minutes at 1200 rpm. […]
Myotubes were generated from 4 animals in each condition. We also analysed whether SOCE in WT myotubes was modified during the lifespan of these animals. […]

[2] = system: SOCE in myotubes from mdx mice; test: Pharmacological modulation of SOCE in myotubes of DMD mouse model (mdx); format: cell-based; settings: FIG. 6; for over-activation of SOCE in DMD mouse model (DMD mutated protein): myotubes from mdx mice
Protocol: Myotubes were generated from 4 animals in each condition. We analysed whether SOCE is increased in myotubes from mxd mice as compared to myotubes from WT mice. To do this, we employed a classical protocol for Ca^2+-entry, in which stores are depleted with tBHQ in a Ca^2+-free buffer and after 10 minutes cells are perfused in a Ca^2+-containing solution (2 mM).
Myotubes from 4 wild type (WT) and 4 mdx mice were loaded with 5 μM Fura-2 AM and placed in an extracellular solution containing 0 mM Ca^2+. Stores were depleted with 50 μM tBHQ and after 10 minutes cells are perfused in a Ca^2+-containing solution (2 mM) in presence or absence of the selected compound (3-(1-(3-methoxy-[1,1-biphenyl]-4-yl)-1H-1,2,3-triazol-4-yl)benzoic acid).

[3] = system: tBHQ-induced calcium influx into Hek cells (SOCE); test: Store-operated calcium entry (SOCE) by Fura-2 Ca2+ measurements in Hek cells; format: cell-based, Human; settings: for Calcium response to SOCE-modulators (regulation of SOCE): FIG. 2A, HEK cells, stores depleted with 50 μM tBHQ, compound added with 2 mM Ca2+; for inhibition at 3 µM / inhibition at 10 µM: Homo sapiens, HEK293, Hek cells
[4] = molecular target: endogenous TRPC1/5 (Homo sapiens, UniProt P48995+Q9UL62); settings: cited from earlier work
endogenous TRPC1/5, sequence (P48995 whole entry, one chain of several): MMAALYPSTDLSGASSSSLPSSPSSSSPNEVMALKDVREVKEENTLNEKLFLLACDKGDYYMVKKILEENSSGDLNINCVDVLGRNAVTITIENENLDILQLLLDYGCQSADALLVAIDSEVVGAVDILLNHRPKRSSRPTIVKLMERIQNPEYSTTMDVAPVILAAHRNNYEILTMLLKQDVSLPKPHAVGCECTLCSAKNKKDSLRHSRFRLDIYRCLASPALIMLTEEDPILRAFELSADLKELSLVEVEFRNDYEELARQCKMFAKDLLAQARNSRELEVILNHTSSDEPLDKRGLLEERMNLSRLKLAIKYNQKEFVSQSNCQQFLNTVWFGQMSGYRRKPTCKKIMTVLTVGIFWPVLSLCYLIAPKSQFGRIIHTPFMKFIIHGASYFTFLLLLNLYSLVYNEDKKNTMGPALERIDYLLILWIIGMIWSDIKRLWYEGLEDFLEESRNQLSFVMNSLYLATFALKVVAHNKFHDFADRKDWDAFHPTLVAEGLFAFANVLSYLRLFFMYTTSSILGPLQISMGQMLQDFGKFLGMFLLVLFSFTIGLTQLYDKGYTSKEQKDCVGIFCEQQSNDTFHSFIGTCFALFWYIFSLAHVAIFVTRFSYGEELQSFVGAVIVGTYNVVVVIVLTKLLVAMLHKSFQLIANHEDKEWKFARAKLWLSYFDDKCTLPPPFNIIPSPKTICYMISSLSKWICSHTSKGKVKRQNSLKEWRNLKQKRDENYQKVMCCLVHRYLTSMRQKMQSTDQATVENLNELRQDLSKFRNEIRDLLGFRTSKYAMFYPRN

[5] = molecular target: T1, overexpressed TRPC5 channels (Homo sapiens, UniProt Q9UL62); settings: cited from earlier work
T1 sequence (Q9UL62 1-973): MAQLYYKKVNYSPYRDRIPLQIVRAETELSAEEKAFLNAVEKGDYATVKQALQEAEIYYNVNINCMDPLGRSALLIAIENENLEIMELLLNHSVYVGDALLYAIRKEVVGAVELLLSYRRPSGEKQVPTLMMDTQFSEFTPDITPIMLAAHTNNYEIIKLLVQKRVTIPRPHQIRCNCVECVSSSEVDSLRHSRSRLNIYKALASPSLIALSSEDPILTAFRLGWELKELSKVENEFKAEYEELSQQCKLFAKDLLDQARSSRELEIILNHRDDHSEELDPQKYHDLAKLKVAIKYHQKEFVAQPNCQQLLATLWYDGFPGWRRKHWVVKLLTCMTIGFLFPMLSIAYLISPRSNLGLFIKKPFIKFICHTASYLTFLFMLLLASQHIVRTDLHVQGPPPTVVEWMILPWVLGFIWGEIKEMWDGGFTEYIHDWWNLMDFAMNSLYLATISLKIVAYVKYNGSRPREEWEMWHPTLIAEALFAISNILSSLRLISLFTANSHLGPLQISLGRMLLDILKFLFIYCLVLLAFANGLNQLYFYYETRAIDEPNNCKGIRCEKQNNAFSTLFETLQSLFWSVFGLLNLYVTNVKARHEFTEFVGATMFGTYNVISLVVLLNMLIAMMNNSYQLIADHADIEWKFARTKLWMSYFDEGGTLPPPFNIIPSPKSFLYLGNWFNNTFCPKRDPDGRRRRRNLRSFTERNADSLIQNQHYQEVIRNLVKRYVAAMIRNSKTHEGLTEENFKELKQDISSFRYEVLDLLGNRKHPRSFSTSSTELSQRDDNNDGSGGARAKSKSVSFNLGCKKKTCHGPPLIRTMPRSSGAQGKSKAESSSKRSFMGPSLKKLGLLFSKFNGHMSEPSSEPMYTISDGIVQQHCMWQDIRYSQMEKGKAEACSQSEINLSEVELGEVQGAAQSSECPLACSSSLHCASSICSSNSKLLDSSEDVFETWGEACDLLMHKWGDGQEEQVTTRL

[6] = system: STIM1 clustering; settings: vascular smooth muscle cells; cited from earlier work
[7] = system: vascular smooth muscle cells; settings: cited from earlier work
[8] = Cytotoxicity, residual cell viability after 24 hours; format: cell-based; settings: 10 μM
[9] = system: metabotropic glutamate, muscarinic acetylcholine and GABA B receptors, GABA A, AMPA and NMDA receptors, tetrodotoxin-sensitive Na+ channels, N- and P/Q-type …; settings: cited from earlier work
[10] = molecular target: ICRAC (Homo sapiens, UniProt Q96D31); settings: read-out: IC50 (ICRAC inhibition); cited from earlier work
ICRAC, sequence (Q96D31 whole entry): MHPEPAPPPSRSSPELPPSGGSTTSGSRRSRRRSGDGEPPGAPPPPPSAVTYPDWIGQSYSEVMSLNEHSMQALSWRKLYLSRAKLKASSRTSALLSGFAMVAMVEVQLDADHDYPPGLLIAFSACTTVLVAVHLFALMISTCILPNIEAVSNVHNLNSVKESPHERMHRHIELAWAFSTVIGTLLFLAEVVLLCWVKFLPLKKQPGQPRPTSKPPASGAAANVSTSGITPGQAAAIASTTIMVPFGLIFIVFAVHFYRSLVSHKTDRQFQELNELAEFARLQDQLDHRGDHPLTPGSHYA

[11] = system: T cell cytokine production; settings: T cells; cited from earlier work

SMILES | over-activation of STIM1 mutated protein [1] | over-activation of SOCE in DMD mouse model (DMD mutated protein) [2] | Calcium response to SOCE-modulators (regulation of SOCE) [3] | inhibition at 3 µM [3] | inhibition at 10 µM [3] | other results
COc1cccc(-c2ccc(-n3cc(-c4cccc(C(=O)O)c4)nn3)cc2)c1 [Compound 13, 3-(1-(3′-Methoxy-[1,1′-biphenyl]-4-yl)-1H-1,2,3-triazol-4-yl)benzoic acid] | able to revert the over-activation of STIM1 mutated protein | able to revert the over-activation of DMD mutated protein | negatively regulate SOCE | 85 ± 9% |  | SOCE in myotubes from mdx mice ([2]; 10 μM): impairs SOCE
O=C(O)c1cccc(-c2cn(-c3ccc(-c4ccc5c(c4)OCCO5)cc3)nn2)c1 [Compound 18, 3-(1-(4-(2,3-dihydrobenzo[b][1,4]dioxin-6-yl)phenyl)-1H-1,2,3-triazol-4-yl)benzoic acid] | able to revert the over-activation of STIM1 mutated proteins | able to revert the over-activation of SOCE in DMD mouse model | negatively regulate SOCE |  | 82.7 ± 4% | 
COc1ccc(OC)c(-c2ccc(-c3cn(-c4cccc(C(=O)O)c4)nn3)cc2)c1 [Compound 46, 3-(4-(2′,5′-dimethoxy-[1,1′-biphenyl]-4-yl)-1H-1,2,3-triazol-1-yl)benzoic acid] |  |  |  | 78.7 ± 3.8% | 87.8 ± 2.9% | 
COC(=O)c1cc(-n2cc(-c3ccc(-c4cc(OC)ccc4OC)cc3)nn2)ccn1 [Compound 47, methyl 4-(4-(2′,5′-dimethoxy-[1,1′-biphenyl]-4-yl)-1H-1,2,3-triazol-1-yl)picolinate] |  |  |  |  | 73.5 ± 1.4% | 
COc1ccc(OC)c(-c2ccc(NC(=O)c3ccncc3F)cc2)c1 [Synta66, 3-fluoropyridine-4-carboxylic acid (2′,5′-dimethoxybiphenyl-4-yl)amide] |  |  |  |  |  | inhibition of endogenous TRPC1/5 [4]: does not inhibit; inhibition of overexpressed TRPC5 channels [5]: does not inhibit; interference with STIM1 clustering [6]: does not interfere with STIM1 clustering; IC50 [7]: ~30 nM; residual cell viability [8]: 76%; effect on receptors and ion channels (mGlu, muscarinic, GABA B, GABA A, AMPA, NMDA, TTX-sensitive Na+, N- and P/Q-type Ca2+ channels) [9]: does not affect; IC50 [10]: ~1000 nM; production of IFN-gamma, IL-2 and IL-17 [11]: inhibits the production; production of IL-8 [11]: but not of IL-8; IC50 in inhibiting SOCE activity [3]: in the nanomolar range
